For 21 compounds, AC50 results are on record in patent US20250262201A1, “COMPOUNDS AND METHODS USEFUL FOR STABILIZING PHENYLALANINE HYDROXYLASE MUTATIONS” (Agios Pharmaceuticals, Inc., priority 2022, published 2025).

In this assay the target is T1, human PAH with the R408W mutation (Homo sapiens, UniProt P00439, R408W).
T1 construct: expressed in transfected cells
T1 sequence (P00439 1-452 R408W): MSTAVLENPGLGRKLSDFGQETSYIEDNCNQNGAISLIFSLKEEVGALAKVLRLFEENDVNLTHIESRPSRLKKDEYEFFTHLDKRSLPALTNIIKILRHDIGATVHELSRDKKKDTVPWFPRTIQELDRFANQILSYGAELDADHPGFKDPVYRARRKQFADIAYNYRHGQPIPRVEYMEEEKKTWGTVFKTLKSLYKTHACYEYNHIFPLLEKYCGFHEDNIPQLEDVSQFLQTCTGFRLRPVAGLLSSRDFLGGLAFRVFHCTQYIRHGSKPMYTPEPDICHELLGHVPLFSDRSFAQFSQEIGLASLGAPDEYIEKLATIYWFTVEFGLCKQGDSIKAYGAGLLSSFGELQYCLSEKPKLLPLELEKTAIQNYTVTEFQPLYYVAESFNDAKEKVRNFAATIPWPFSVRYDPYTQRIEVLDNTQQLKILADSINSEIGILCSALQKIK
Briefly: Cell Based Phenylalanine Flux Assay. The conditions noted are these: A375 cells expressing human R408W PAH; 24 hrs compound incubation; 13C-Tyrosine by LC-MS; average where tested multiple times; read-out: AC50.
Regarding `CC(C)(F)c1nnc(C(=O)N2CCc3[nH]cnc3[C@H]2c2ncc3ccccc3n2)o1` [Example 161, (S)-(5-(2-fluoropropan-2-yl)-1,3,4-oxadiazol-2-yl)(4-(quinazolin-2-yl)-6,7-dihydro-1H-imidazo[4,5-c]pyridin-5(4H)-yl)methanone], the AC50 was 0.5 to 1 µM.

For `CC(C)(F)c1nnc(C(=O)N2CCc3[nH]cnc3[C@@H]2c2ncc3ccccc3n2)o1` [Example 162, (R)-(5-(2-fluoropropan-2-yl)-1,3-oxadiazol-2-yl)(4-(quinazolin-2-yl)-6,7-dihydro-1H-imidazo[4,5-c]pyridin-5(4H)-yl)methanone], the AC50 was more than 5 µM.

As to `O=C(c1nnc(-c2ncccc2F)o1)N1CCc2[nH]cnc2[C@H]1c1ncc2ccccc2n1` [Example 163, (S)-(5-(3-fluoropyridin-2-yl)-1,3,4-oxadiazol-2-yl)(4-(quinazolin-2-yl)-6,7-dihydro-1H-imidazo[4,5-c]pyridin-5(4H)-yl)methanone], the AC50 was less than 0.5 µM.

`O=C(c1nnc(-c2ncccc2F)o1)N1CCc2[nH]cnc2[C@@H]1c1ncc2ccccc2n1` [Example 164, (R)-(5-(3-fluoropyridin-2-yl)-1,3,4-oxadiazol-2-yl)(4-(quinazolin-2-yl)-6,7-dihydro-1H-imidazo[4,5-c]pyridin-5(4H)-yl)methanone]: the concentration at half-maximal activity (AC50) was more than 5 µM.

Regarding `Cn1ccc(-c2nnc(C(=O)N3CCc4[nH]cnc4[C@H]3c3ncc4ccccc4n3)o2)n1` [Example 165, (S)-(5-(1-methyl-1H-pyrazol-3-yl)-1,3,4-oxadiazol-2-yl)(4-(quinazolin-2-yl)-6,7-dihydro-1H-imidazo[4,5-c]pyridin-5(4H)-yl)methanone], the concentration at half-maximal activity (AC50) was 0.5 to 1 µM.

Turning to `Cn1ccc(-c2nnc(C(=O)N3CCc4[nH]cnc4[C@@H]3c3ncc4ccccc4n3)o2)n1` [Example 166, (R)-(5-(1-methyl-1H-pyrazol-3-yl)-1,3,4-oxadiazol-2-yl)(4-(quinazolin-2-yl)-6,7-dihydro-1H-imidazo[4,5-c]pyridin-5(4H)-yl)methanone], the concentration at half-maximal activity (AC50) lay in the range of 1 to 5 µM.

As to `O=C(c1nnc(-c2ccc(F)cn2)o1)N1CCc2[nH]cnc2[C@@H]1c1ncc2ccccc2n1` [Example 167, (R)-(5-(5-fluoropyridin-2-yl)-1,3,4-oxadiazol-2-yl)(4-(quinazolin-2-yl)-6,7-dihydro-1H-imidazo[4,5-c]pyridin-5(4H)-yl)methanone], the concentration at half-maximal activity (AC50) lay within 1 to 5 µM.

Turning to `O=C(c1nnc(-c2ccc(F)cn2)o1)N1CCc2[nH]cnc2[C@H]1c1ncc2ccccc2n1` [Example 168, (S)-(5-(5-fluoropyridin-2-yl)-1,3,4-oxadiazol-2-yl)(4-(quinazolin-2-yl)-6,7-dihydro-1H-imidazo[4,5-c]pyridin-5(4H)-yl)methanone], the AC50 is less than 0.5 µM.

For the compound `O=C(c1nnc(-c2ccc(C(F)(F)F)cn2)o1)N1CCc2[nH]cnc2[C@@H]1c1ncc2ccccc2n1` [Example 169, (R)-(4-(quinazolin-2-yl)-6,7-dihydro-1H-imidazo[4,5-c]pyridin-5(4H)-yl)(5-(5-(trifluoromethyl)pyridin-2-yl)-1,3,4-oxadiazol-2-yl)methanone], the half-maximal activity concentration (AC50) was 1 to 5 µM.

For the compound `O=C(c1nnc(-c2ccc(C(F)(F)F)cn2)o1)N1CCc2[nH]cnc2[C@H]1c1ncc2ccccc2n1` [Example 170, (S)-(4-(quinazolin-2-yl)-6,7-dihydro-1H-imidazo[4,5-c]pyridin-5(4H)-yl)(5-(5-(trifluoromethyl)pyridin-2-yl)-1,3,4-oxadiazol-2-yl)methanone], the AC50 lay in the range of 0.5 to 1 µM.

As to `Cc1ccc(-c2nnc(C(=O)N3CCc4[nH]cnc4[C@H]3c3ncc4ccccc4n3)o2)nc1` [Example 171, (S)-(5-(5-methylpyridin-2-yl)-1,3,4-oxadiazol-2-yl)(4-(quinazolin-2-yl)-6,7-dihydro-1H-imidazo[4,5-c]pyridin-5(4H)-yl)methanone], the AC50 is less than 0.5 µM.

With `Cc1ccc(-c2nnc(C(=O)N3CCc4[nH]cnc4[C@@H]3c3ncc4ccccc4n3)o2)nc1` [Example 172, (R)-(5-(5-methylpyridin-2-yl)-1,3,4-oxadiazol-2-yl)(4-(quinazolin-2-yl)-6,7-dihydro-1H-imidazo[4,5-c]pyridin-5(4H)-yl)methanone], the AC50 was 1 to 5 µM.

On to `O=C(c1nnc(-c2cc(C(F)(F)F)ccn2)o1)N1CCc2[nH]cnc2[C@H]1c1ncc2ccccc2n1` [Example 173, (S)-(4-(quinazolin-2-yl)-6,7-dihydro-1H-imidazo[4,5-c]pyridin-5(4H)-yl)(5-(4-(trifluoromethyl)pyridin-2-yl)-1,3,4-oxadiazol-2-yl)methanone], for which the half-maximal activity concentration (AC50) is less than 0.5 µM.

On to `O=C(c1nnc(-c2cc(C(F)(F)F)ccn2)o1)N1CCc2[nH]cnc2[C@@H]1c1ncc2ccccc2n1` [Example 174, (R)-(4-(quinazolin-2-yl)-6,7-dihydro-1H-imidazo[4,5-c]pyridin-5(4H)-yl)(5-(4-(trifluoromethyl)pyridin-2-yl)-1,3,4-oxadiazol-2-yl)methanone], for which the AC50 is 1 to 5 µM.

`O=C(c1nnc(-c2cc[nH]n2)o1)N1CCc2[nH]cnc2[C@H]1c1ncc2ccccc2n1` [Example 175, (S)-(5-(1H-pyrazol-3-yl)-1,3,4-oxadiazol-2-yl)(4-(quinazolin-2-yl)-6,7-dihydro-1H-imidazo[4,5-c]pyridin-5(4H)-yl)methanone]: the AC50 was in the range of 0.5 to 1 µM.

With `O=C(c1nnc(-c2cc[nH]n2)o1)N1CCc2[nH]cnc2[C@@H]1c1ncc2ccccc2n1` [Example 176, (R)-(5-(1H-pyrazol-3-yl)-1,3,4-oxadiazol-2-yl)(4-(quinazolin-2-yl)-6,7-dihydro-1H-imidazo[4,5-c]pyridin-5(4H)-yl)methanone], the AC50 is more than 5 µM.

For `O=C(c1nnc(-c2cccnc2)o1)N1CCc2[nH]cnc2[C@H]1c1ncc2ccccc2n1` [Example 177, (S)-(5-(pyridin-3-yl)-1,3,4-oxadiazol-2-yl)(4-(quinazolin-2-yl)-6,7-dihydro-1H-imidazo[4,5-c]pyridin-5(4H)-yl)methanone], the AC50 was less than 0.5 µM.

On to `O=C(c1nnc(-c2cccnc2)o1)N1CCc2[nH]cnc2[C@@H]1c1ncc2ccccc2n1` [Example 178, (R)-(5-(pyridin-3-yl)-1,3,4-oxadiazol-2-yl)(4-(quinazolin-2-yl)-6,7-dihydro-1H-imidazo[4,5-c]pyridin-5(4H)-yl)methanone], for which the AC50 lay within 1 to 5 µM.

Take `O=C(c1nnc(-c2ccncc2)o1)N1CCc2[nH]cnc2[C@H]1c1ncc2ccccc2n1` [Example 179, (S)-(5-(pyridin-4-yl)-1,3,4-oxadiazol-2-yl)(4-(quinazolin-2-yl)-6,7-dihydro-1H-imidazo[4,5-c]pyridin-5(4H)-yl)methanone]: the concentration at half-maximal activity (AC50) was less than 0.5 µM.

Consider `O=C(c1nnc(-c2ccncc2)o1)N1CCc2[nH]cnc2[C@@H]1c1ncc2ccccc2n1` [Example 180, (R)-(5-(pyridin-4-yl)-1,3,4-oxadiazol-2-yl)(4-(quinazolin-2-yl)-6,7-dihydro-1H-imidazo[4,5-c]pyridin-5(4H)-yl)methanone], for which the AC50 is more than 5 µM.

As to `COc1ccc(-c2nnc(C(=O)N3CCc4[nH]cnc4[C@H]3c3ncc4ccccc4n3)o2)nc1` [Example 181, (S)-(5-(5-methoxypyridin-2-yl)-1,3,4-oxadiazol-2-yl)(4-(quinazolin-2-yl)-6,7-dihydro-1H-imidazo[4,5-c]pyridin-5(4H)-yl)methanone], the half-maximal activity concentration (AC50) is less than 0.5 µM.
